The results in this text go back to ChEMBL document CHEMBL1138645, “Carbonic anhydrase inhibitors. Interaction of isozymes I, II, IV, V, and IX with phosphates, carbamoyl phosphate, and the phosphonate antiviral drug foscarnet” (Bioorg Med Chem Lett, 2004).

For one assay, the target named is Carbonic anhydrase 2 (Homo sapiens, UniProt P00918). Kind of assay: Inhibition constant of anion against human carbonic anhydrase isozyme hCA II.
The target in the next assay is Carbonic anhydrase 4 (Homo sapiens, UniProt P22748). In words: Inhibition constant of anion against human carbonic anhydrase isozyme hCA IV.
Carbonic anhydrase 4, sequence (P22748 whole entry): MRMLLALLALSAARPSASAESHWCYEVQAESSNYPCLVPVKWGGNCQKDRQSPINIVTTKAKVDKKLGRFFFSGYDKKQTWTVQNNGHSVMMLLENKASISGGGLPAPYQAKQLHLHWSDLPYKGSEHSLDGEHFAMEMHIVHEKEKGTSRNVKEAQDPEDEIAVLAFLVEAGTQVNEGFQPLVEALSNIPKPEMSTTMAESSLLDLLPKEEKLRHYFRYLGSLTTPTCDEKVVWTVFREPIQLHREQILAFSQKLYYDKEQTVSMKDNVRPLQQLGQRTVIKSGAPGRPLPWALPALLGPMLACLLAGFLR
The next assay has as its target Carbonic anhydrase 9 (Homo sapiens, UniProt Q16790). Kind of assay: Inhibition constant of anion against human carbonic anhydrase isozyme hCA IX.
The next assay concerns the target Carbonic anhydrase V (Homo sapiens, UniProt Q9Y2D0+P35218). Kind of assay: Inhibition constant of anion against human carbonic anhydrase isozyme hCA V. Format: protein assay.
Assay [1] concerns the target T1, Carbonic anhydrase 1 (Homo sapiens, UniProt P00915). Kind of assay: Inhibition constant of anion against human carbonic anhydrase isozyme hCA I.
For assay [2], the target named is T1, Carbonic anhydrase 1. In words: Inhibition constant of anion against human carbonic anhydrase isozyme hCA I; A = activator.

T1 sequence (P00915 whole entry): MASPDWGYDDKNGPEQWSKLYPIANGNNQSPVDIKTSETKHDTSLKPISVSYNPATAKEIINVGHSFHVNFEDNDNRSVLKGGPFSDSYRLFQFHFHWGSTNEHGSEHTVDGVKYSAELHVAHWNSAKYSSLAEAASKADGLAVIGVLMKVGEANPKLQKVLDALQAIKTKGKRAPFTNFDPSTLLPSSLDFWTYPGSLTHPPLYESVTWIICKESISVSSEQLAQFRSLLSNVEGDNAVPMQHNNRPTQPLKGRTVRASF

On to `NC(=O)OP(=O)([O-])[O-].[Na+].[Na+]` [CARBAMOYL PHOSPHATE; DI SODIUM], for which the Ki (usually the dissociation constant of the complex between target and ligand, obtained from inhibition or displacement) on Carbonic anhydrase 2 worked out at 0.31 mM; at Carbonic anhydrase 4, 0.0099 mM; at Carbonic anhydrase 9, 3.06 mM; at Carbonic anhydrase V, 0.0085 mM; at Carbonic anhydrase 1 [1] it was 0.0094 mM.

`O=C([O-])P(=O)([O-])[O-].[Na+].[Na+].[Na+]` [FOSCARNET SODIUM]: the inhibition constant (Ki) is 14.2 mM on Carbonic anhydrase 2; “Activator” on Carbonic anhydrase 1 [2]; 0.82 mM on Carbonic anhydrase 4; 2.21 mM on Carbonic anhydrase 9; 41.7 mM at Carbonic anhydrase V.

For `O=C([O-])O.[Na+]` [SODIUM BICARBONATE], the Ki came out at 6.6 mM on Carbonic anhydrase 4, 13 mM on Carbonic anhydrase 9 and 82 mM on Carbonic anhydrase V.

On to `O=C([O-])[O-].[Na+].[Na+]` [SODIUM CARBONATE], for which the Ki on Carbonic anhydrase 4 came out at 5.7 mM; on Carbonic anhydrase V, 95 mM.

On to `O=C[O-].[Na+]` [SODIUM FORMATE], for which the inhibitory constant (Ki) at Carbonic anhydrase 2 is 24 mM; on Carbonic anhydrase 1 [2], “Activator”; at Carbonic anhydrase 9, 1.22 mM; on Carbonic anhydrase V, 9.97 mM.

`O=P([O-])([O-])O.[Na+].[Na+]` [SODIUM PHOSPHATE, DIBASIC, ANHYDROUS]: the inhibition constant (Ki) entry at Carbonic anhydrase 1 [2] is listed as “Activator”; on Carbonic anhydrase V, 4.49 mM.

With `O=P([O-])(O)O.[Na+]` [SODIUM PHOSPHATE, MONOBASIC], the Ki entry at Carbonic anhydrase 1 [2] was “Activator”; at Carbonic anhydrase V it was 3.3 mM.
